This note sets out measurements from PubChem BioAssay (NCI).

Holding throughout (assay): growth of human tumour cells (NCI), 48 h
Experiment [1] relates to NCI-H23 lung.
The test system of experiment [2] is HCT-15 colon.
The test system of experiment [3] is HL-60(TB) leukemia.
For experiment [4], the system named is MDA-MB-231 breast.

SMILES strings stand for the structures.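 Protocol summary: plate cells (96-well), add compound at 5 concentrations, incubate 48 h, interpolate endpoints linearly. Abbreviation: GI50, concentration required for 50% inhibition of growth. The concentration for full growth arrest is given as TGI.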 A value given as a limit tells only on which side of the number the result lay.

With `CCOc1ccc(/C=C2\NC(=S)N(/C=C3\C(=O)Oc4ccccc4C3=O)C2=O)cc1`, the TGI in experiment [1] is 80.8 µM; in experiment [2], 49.9 µM; in experiment [3], 33.7 µM; in experiment [4], 50.7 µM.

On to `CCc1ccc2nccc(NCCCN(C)C)c2c1[N+](=O)[O-]`, for which the TGI in experiment [1], in experiment [3] and in experiment [4] was over 100 µM throughout.

In the case of `CCOC(=O)C(C(=O)OCC)C(=O)c1ccccc1C(=O)c1ccccc1`, the TGI in experiment [1], in experiment [2], in experiment [3] and in experiment [4] was over 100 µM throughout.

As for `Cc1ccc2nc(-c3ccc(N)c4ccccc34)[nH]c2c1`, the GI50 was 0.159 µM in experiment [1], under 0.0425 µM in experiment [2], 0.102 µM in experiment [3] and 0.0899 µM in experiment [4]. Besides, the TGI in experiment [1] came out at 23.9 µM; in experiment [2] it was 13.4 µM; in experiment [3], 3.29 µM; in experiment [4] it was 13.3 µM.

`C=C1C(OC/C=C/COC2O[C@@H]3O[C@@]4(C)CC[C@H]5[C@H](C)CC[C@@H](C2=C)[C@@]35OO4)O[C@@H]2O[C@@]3(C)CC[C@H]4[C@H](C)CC[C@@H]1[C@@]24OO3` (stereo not given in full): the GI50 was 0.0708 µM in experiment [1], under 0.0194 µM in experiment [2] and 11.4 µM in experiment [4]. For the same molecule, the TGI turned out to be 14.2 µM in experiment [1], 16 µM in experiment [2], 47.1 µM in experiment [3] and 51.3 µM in experiment [4].

On to `Nc1nccc2c1ncn2C1OC(CO)C(O)C1O` (stereo not given), for which the GI50 was over 100 µM in experiment [1], 75.8 µM in experiment [2], over 100 µM in experiment [3] and over 100 µM in experiment [4]. In addition, the TGI in experiment [1], in experiment [2], in experiment [3] and in experiment [4] was over 100 µM throughout.

Take `COc1cccc(N=N/C(=N\NC(=O)c2cc(Br)ccc2O)c2ccc(N(CCC#N)CCC#N)cc2OC)c1`: the GI50 in experiment [1] was 68.5 µg/mL; in experiment [2], 52 µg/mL; in experiment [3] it was 15 µg/mL; in experiment [4], 71.9 µg/mL. Besides, the TGI is over 150 µg/mL in experiment [1], over 150 µg/mL in experiment [2], 15 µg/mL in experiment [3] and over 150 µg/mL in experiment [4].

`CCN(CC)CCn1c2ccc(OC)cc2c2sc3cc(OC)ccc3c(=O)c21`: the GI50 was 1.9 µM in experiment [1], 0.861 µM in experiment [2], 1.77 µM in experiment [3] and 1.54 µM in experiment [4]. Also, the TGI was 4.34 µM in experiment [1], 2.66 µM in experiment [2], 4.22 µM in experiment [3] and 3.31 µM in experiment [4].

Consider `COC(=O)[C@]12CC[C@@H](C)[C@H](C)[C@@H]1C1=CC[C@@H]3[C@@]4(C)C(C=O)=C[C@@](C)(COS(C)(=O)=O)C4[C@H](O)C[C@@]3(C)[C@]1(C)CC2` (stereo not given in full), for which the GI50 in experiment [1] was 1.68 µM; in experiment [2] it was 1.34 µM; in experiment [3], 1.17 µM. The TGI in experiment [1] came out at 3.63 µM; in experiment [2], 2.87 µM; in experiment [3] it was 4.24 µM.

Consider `COc1ccc2c(c1)c(-c1ccc(-c3cn(C)c4ccc(OC)cc34)[nH]1)cn2C`, for which the figures for the GI50 in experiment [1], in experiment [2] and in experiment [3] were 4.84 µM, 1.84 µM and 2.36 µM, respectively. Besides, the TGI in experiment [1] came to 33 µM; in experiment [2] it was 3.91 µM; in experiment [3], 5.69 µM.

In the case of `COc1cc2c3c(n(CCCBr)c(=O)c2cc1OC)-c1ccc(F)cc1C3=O`, the GI50 is 17.8 µM in experiment [1], 48.7 µM in experiment [2], 24.8 µM in experiment [3] and 66.3 µM in experiment [4]. In addition, the TGI is 76.4 µM in experiment [1], over 100 µM in experiment [2], over 100 µM in experiment [3] and over 100 µM in experiment [4].

As to `NS(=O)(=O)c1ccc(-n2ncc3c(Nc4ccccc4)ncnc32)cc1`, the GI50 was 1.37 µM in experiment [1], 19.1 µM in experiment [2], 6.59 µM in experiment [3] and 15 µM in experiment [4]. Further, the TGI in experiment [1] is 23.8 µM; in experiment [2], over 100 µM; in experiment [3], 92.7 µM; in experiment [4], 87.1 µM.

In the case of `COc1ccc(-c2ccc(-c3ccc(C(=N)N)cn3)o2)cc1Cl`, the GI50 is 1.92 µM in experiment [1], 1.73 µM in experiment [2], 2.29 µM in experiment [3] and 1.81 µM in experiment [4]. The TGI is 4.04 µM in experiment [1], 3.38 µM in experiment [2], 5.36 µM in experiment [3] and 3.41 µM in experiment [4].

`CN(C)CCCCn1ccc2c1C(=O)c1c(c(O)c3ccccc3c1O)C2=O`: the GI50 in experiment [1] was 11.2 µM; in experiment [2] it was 16 µM; in experiment [3] it was 10.4 µM; in experiment [4], 17 µM. Also, the TGI in experiment [1] came out at 23.3 µM; in experiment [2] it was 29.4 µM; in experiment [3] it was 23.4 µM; in experiment [4], 95.6 µM.

For the molecule `O=C1c2ccccc2-c2c1c1ccc([N+](=O)[O-])cc1c(=O)n2CCCNCCO`, the GI50 in experiment [1] is 0.115 µM; in experiment [2], 0.276 µM; in experiment [3] it was 0.242 µM; in experiment [4], 1.95 µM. For the same molecule, the TGI in experiment [1] stood at 0.713 µM; in experiment [2], 1.69 µM; in experiment [3], 1.52 µM; in experiment [4], 3.83 µM.

With `OCC(CCc1c[nH]c2ccccc12)c1c[nH]c2ccccc12` (stereo not given), the TGI in experiment [1] was 30 µM; in experiment [2], 32.2 µM; in experiment [3], 26.6 µM; in experiment [4], 27.6 µM.

Take `O=S(=O)(NC1=NCCN1C(=S)SN1CCn2c1nsc2=S)c1ccccc1Cl`: the figures for the GI50 in experiment [2], in experiment [3] and in experiment [4] were 18.7 µM, 0.342 µM and 22.5 µM, respectively. For the same molecule, the TGI stood at 53 µM in experiment [2], 8.62 µM in experiment [3] and 71.1 µM in experiment [4].

`CNC1=C(C(=O)OC)SC(c2ccccc2)(c2ccccc2)SC1`: the GI50 was 17.5 µM in experiment [1], 9.36 µM in experiment [2], 12 µM in experiment [3] and 45.8 µM in experiment [4]. Moreover, the TGI is over 100 µM in experiment [1], over 100 µM in experiment [2], 58.2 µM in experiment [3] and over 100 µM in experiment [4].
